Test [1] deals with HCT-116 cells. In words: SRB assay cancer cell growth rate, HCT-116. The test is classed as cell-based. To be noted: relative to control (100%), 48 hours, KN510 200 μM, irinotecan 2.5 μM, 5-FU 5 μM, gemcitabine 2.5 μM, paclitaxel 10 nM, cisplatin 1 μM, alone or KN510 + anticancer drug.
The test system of test [2] is CAKI-1 cells. In words: SRB assay cancer cell growth rate, CAKI-1. The test is classed as cell-based. The settings on record: relative to control (100%), 48 hours, KN510 200 μM, irinotecan 2.5 μM, 5-FU 5 μM, gemcitabine 2.5 μM, paclitaxel 10 nM, cisplatin 1 μM, alone or KN510 + anticancer drug. Background: Sulforhodamine B stains cellular protein and so reports cell mass.

The test system of test [3] is UACC257 cells. In words: SRB assay cancer cell growth rate, UACC257. The test is classed as cell-based. To be noted: relative to control (100%), 48 hours, KN510 200 μM, irinotecan 2.5 μM, 5-FU 5 μM, gemcitabine 2.5 μM, paclitaxel 10 nM, cisplatin 1 μM, alone or KN510 + anticancer drug.
Test [4] concerns OVCAR-8 cells. The test is described as follows: SRB assay cancer cell growth rate, OVCAR-8. The test is classed as cell-based. The settings on record: relative to control (100%), 48 hours, KN510 200 μM, irinotecan 2.5 μM, 5-FU 5 μM, gemcitabine 2.5 μM, paclitaxel 10 nM, cisplatin 1 μM, alone or KN510 + anticancer drug.
The subject of test [5] is A549 cells. The test is described as follows: SRB assay cancer cell growth rate, A549. The test is classed as cell-based. To be noted: relative to control (100%), 48 hours, KN510 200 μM, irinotecan 2.5 μM, 5-FU 5 μM, gemcitabine 2.5 μM, paclitaxel 10 nM, cisplatin 1 μM, alone or KN510 + anticancer drug.
Test [6] concerns PC-3 cells. In words: SRB assay cancer cell growth rate, PC-3. The settings on record: relative to control (100%), 48 hours, KN510 200 μM, irinotecan 2.5 μM, 5-FU 5 μM, gemcitabine 2.5 μM, paclitaxel 10 nM, cisplatin 1 μM, alone or KN510 + anticancer drug. The test is classed as cell-based.
Test [7] has as its system SR cells. The test is described as follows: SRB assay cancer cell growth rate, SR. To be noted: relative to control (100%), 48 hours, KN510 200 μM, irinotecan 2.5 μM, 5-FU 5 μM, gemcitabine 2.5 μM, paclitaxel 10 nM, cisplatin 1 μM, alone or KN510 + anticancer drug. The test is classed as cell-based.
Test [8] has as its system K562 cells. In words: SRB assay cancer cell growth rate, K562. In kind it is cell-based. The settings on record: relative to control (100%), 48 hours, KN510 200 μM, irinotecan 2.5 μM, 5-FU 5 μM, gemcitabine 2.5 μM, paclitaxel 10 nM, cisplatin 1 μM, alone or KN510 + anticancer drug.
The subject of test [9] is MIA PaCa-2 cells xenograft tumor. The test is described as follows: Pancreatic cancer xenograft tumor model. The test is classed as in vivo, Balb/c nude mice. The settings on record: irinotecan 20 mg/kg IP 1 days/week, alone or combined. As for the experimental part: To determine the anticancer synergistic effects of omeprazole (KN510) and irinotecan co-administration in vivo, a pancreatic cancer xenograft tumor model was constructed and administered with the drugs.
Specifically, 6-8 week old Balb/c nude mice (Orient, Korea) were inoculated subcutaneously with MIA PaCa-2 cells (1×10^7) in 100 μl PBS using 1 ml syringe, and when the tumor size reached 100 mm^3, the mice were randomly divided into 4 groups with 4 mice per group, and then treated with drugs as shown in Table 14 below.
We also performed two separate experiments with omeprazole (KN510), one at a concentration of 50 mg/kg and the other at 100 mg/kg. • 1) Control (solvent treatment) • 2) Omeprazole (KN510) alone (50 mg/kg or 100 mg/kg, P.O. injection), • 3) Irinotecan alone (20 mg/kg, I.P injection), • 4) Omeprazole (KN510) (50 mg/kg or 100 mg/kg)+irinotecan (20 mg/kg/) as a combination treatment group
Primary tumor size was measured weekly using calipers. Tumor volumes were calculated using Equation 1 below, and data are expressed as mean (mean)+standard deviation (SD) values of mouse tumor volume per group.

Where [10] appears, read: experiment with KN510 50 mg/kg PO 5 days/week.
The mark [11] stands for this setting: experiment with KN510 100 mg/kg PO 5 days/week.

Values joined by “and” are separate entries in the source; they are usually repeats but may differ in a detail not shown here. Identical values can stand only once.

Consider `COc1ccc2[nH]c([S+]([O-])Cc3ncc(C)c(OC)c3C)nc2c1` (stereo not shown) [KN510, omeprazole], for which the “HCT-116 growth rate average (%)” value in [1] is given as 35.30%. Further, the “CAKI-1 growth rate average (%)” value in test [2] was 41.69% and 35.30%. Besides, the “UACC257 growth rate average (%)” value in [3] is 10.97% and 3.31% and 3.10% and 4.33%. Further, in [4], the “OVCAR-8 growth rate average (%)” value is 30.64% and 38.65%. The “A549 growth rate average (%)” value in [5] is 10.47%. The “PC-3 growth rate average (%)” value in [6] was 12.70%. In addition, in [7], the “SR growth rate average (%)” value was 42.75%. The “K562 growth rate average (%)” value in [8] worked out at 34.61%. Also, in [9] (setting [10]), the “Tumor volume, 2 week average” value was 143.01 mm^3; the “Tumor volume, 3 week average” value is given as 675.69 mm^3; the “Tumor volume, 4 week average” value turned out to be 965.63 mm^3; the “Tumor volume, 5 week average” value turned out to be 1296.93 mm^3. Also, in [9] (setting [11]), the “Tumor volume, 2 week average” value amounted to 93.96 mm^3; the “Tumor volume, 3 week average” value was 229.95 mm^3; the “Tumor volume, 4 week average” value stood at 469.90 mm^3; the “Tumor volume, 5 week average” value was found to be 843.25 mm^3.
